From patent US20120220562A1, “Anti-Viral Compounds” (ABBOTT LABAORATORIES, priority 2011, published 2012) come the findings set out here.

As a reminder, the pEC50 is −log10 of the EC50, conventionally taken in molar units.

pEC50: −log10 of the molar value.

The test system of this assay is HCV 1b-Con1 replicon. In words: HCV 1b-Con1 replicon assay in the presence of 5% FBS. The class given is cell-based. The note with it: Hepatitis C virus. Background: A replicon is a self-replicating genome or part of one, used to study replication in cells.
Turning to `COC(=O)N[C@H](C(=O)N1CCC[C@H]1c1nc2c(Cl)c([C@H]3CC[C@@H](c4ccc5[nH]c([C@@H]6CCCN6C(=O)[C@@H](NC(=O)OC)C(C)C)nc5c4Cl)N3c3ccc(C(C)(C)C)cc3)ccc2[nH]1)C(C)C` [Example 6.6, methyl {(2S)-1-[(2S)-2-{5-[(2R,5S)-1-(4-tert-butylphenyl)-5-{4-chloro-2-[(2S)-1-{(2S)-2-[(methoxycarbonyl)amino]-3-methylbutanoyl}pyrrolidin-2-yl]-1H-benzimidazol-5-yl}pyrrolidin-2-yl]-4-chloro-1H-benzimidazol-2-yl}pyrrolidin-1-yl]-3-methyl-1-oxobutan-2-yl}carbamate], the pEC50 is over 10.00. To `COC(=O)N[C@H](C(=O)N1CCC[C@H]1c1nc2cc([C@H]3CC[C@H](c4ccc5[nH]c([C@@H]6CCCN6C(=O)[C@@H](NC(=O)OC)C(C)C)nc5c4)N3c3ccc(OCC4COCO4)cc3)ccc2[nH]1)C(C)C` (stereo partly drawn) [Example 2.4, methyl {(2S)-1-[(2S)-2-{5-[(2R,5R)-1-[4-(1,3-dioxolan-4-ylmethoxy)phenyl]-5-{2-[(2S)-1-{(2S)-2-[(methoxycarbonyl)amino]-3-methylbutanoyl}pyrrolidin-2-yl]-1H-benzimidazol-5-yl}pyrrolidin-2-yl]-1H-benzimidazol-2-yl}pyrrolidin-1-yl]-3-methyl-1-oxobutan-2-yl}carbamate] belongs over 10.00; to `COC(=O)N[C@H](C(=O)N1CCC[C@H]1c1nc2cc([C@H]3CC[C@H](c4ccc5[nH]c([C@@H]6CCCN6C(=O)[C@@H](NC(=O)OC)C(C)C)nc5c4)N3c3cc(F)c(N4CCCCC4)cc3F)ccc2[nH]1)C(C)C` [Example 4.5, methyl {(2S)-1-[(2S)-2-{5-[(2R,5R)-1-[2,5-difluoro-4-(piperidin-1-yl)phenyl]-5-{2-[(2S)-1-{(2S)-2-[(methoxycarbonyl)amino]-3-methylbutanoyl}pyrrolidin-2-yl]-1H-benzimidazol-5-yl}pyrrolidin-2-yl]-1H-benzimidazol-2-yl}pyrrolidin-1-yl]-3-methyl-1-oxobutan-2-yl}carbamate], over 10.00; to `COC(=O)N[C@H](C(=O)N1CCC[C@H]1c1nc2cc([C@H]3CC[C@H](c4cc5nc([C@@H]6CCCN6C(=O)[C@@H](NC(=O)OC)C6CCCC6)[nH]c5cc4F)N3c3cc(F)c(N4CCCCC4)c(F)c3)c(F)cc2[nH]1)C1CCCC1` [Example 3.39, dimethyl ({(2R,5R)-1-[3,5-difluoro-4-(piperidin-1-yl)phenyl]pyrrolidine-2,5-diyl}bis{(6-fluoro-1H-benzimidazole-5,2-diyl)(2S)pyrrolidine-2,1-diyl[(1S)-1-cyclopentyl-2-oxoethane-2,1-diyl]})biscarbamate], over 10.00. To `COC(=O)N[C@H](C(=O)N1CCC[C@H]1c1nc2ccc([C@H]3CC[C@H](c4ccc5nc([C@@H]6CCCN6C(=O)[C@@H](NC(=O)OC)C(C)C)[nH]c5c4)N3c3cc(F)c(N4CCC(Cc5ccccc5)CC4)c(F)c3)cc2[nH]1)C(C)C` [Example 4.47, methyl {(2S)-1-[(2S)-2-{6-[(2R,5R)-1-[4-(4-benzylpiperidin-1-yl)-3,5-difluorophenyl]-5-{2-[(2S)-1-{(2S)-2-[(methoxycarbonyl)amino]-3-methylbutanoyl}pyrrolidin-2-yl]-1H-benzimidazol-6-yl}pyrrolidin-2-yl]-1H-benzimidazol-2-yl}pyrrolidin-1-yl]-3-methyl-1-oxobutan-2-yl}carbamate] belongs over 10.00; to `COC(=O)N[C@H](C(=O)N1CCC[C@H]1c1nc2cc(F)c([C@H]3CC[C@H](c4cc5[nH]c([C@@H]6CCCN6C(=O)[C@@H](NC(=O)OC)C(C)C)nc5cc4F)N3c3cc(F)c(N4CCN(c5c(F)cccc5F)CC4)c(F)c3)cc2[nH]1)C(C)C` [Example 6.16, methyl {(2S)-1-[(2S)-2-{6-[(2R,5R)-1-{4-[4-(2,6-difluorophenyl)piperazin-1-yl]-3,5-difluorophenyl}-5-{5-fluoro-2-[(2S)-1-{(2S)-2-[(methoxycarbonyl)amino]-3-methylbutanoyl}pyrrolidin-2-yl]-1H-benzimidazol-6-yl}pyrrolidin-2-yl]-5-fluoro-1H-benzimidazol-2-yl}pyrrolidin-1-yl]-3-methyl-1-oxobutan-2-yl}carbamate], over 10.00; to `COC(=O)N[C@H](C(=O)N1[C@H](c2nc3cc([C@H]4CC[C@H](c5ccc6[nH]c([C@@H]7C[C@@H]8CCC[C@@H]8N7C(=O)[C@@H](NC(=O)OC)[C@@H](C)OC)nc6c5)N4c4cc(F)c(N5CCCCC5)c(F)c4)ccc3[nH]2)C[C@@H]2CCC[C@@H]21)C(C)C` [Example 10.2, methyl {(2S,3R)-1-[(2S,3aS,6aS)-2-{5-[(2R,5R)-1-[3,5-difluoro-4-(piperidin-1-yl)phenyl]-5-{2-[(2S,3aS,6aS)-1-{(2S)-2-[(methoxycarbonyl)amino]-3-methylbutanoyl}octahydrocyclopenta[b]pyrrol-2-yl]-1H-benzimidazol-5-yl}pyrrolidin-2-yl]-1H-benzimidazol-2-yl}hexahydrocyclopenta[b]pyrrol-1(2H)-yl]-3-methoxy-1-oxobutan-2-yl}carbamate], over 10.00. Next, `COC(=O)N[C@H](C(=O)N1CCC[C@H]1c1nc2ccc([C@H]3CC[C@H](c4ccc5nc([C@@H]6CCCN6C(=O)[C@@H](NC(=O)OC)C(C)C)[nH]c5c4)N3c3ccc(OC4CCCC4)c(F)c3)cc2[nH]1)C(C)C` [Example 4.1, methyl {(2S)-1-[(2S)-2-{6-[(2R,5R)-1-[4-(cyclopentyloxy)-3-fluorophenyl]-5-{2-[(2S)-1-{(2S)-2-[(methoxycarbonyl)amino]-3-methylbutanoyl}pyrrolidin-2-yl]-1H-benzimidazol-6-yl}pyrrolidin-2-yl]-1H-benzimidazol-2-yl}pyrrolidin-1-yl]-3-methyl-1-oxobutan-2-yl}carbamate]: over 10.00; `COC(=O)N[C@H](C(=O)N1CCC[C@H]1c1nc(-c2ccc([C@H]3CC[C@H](c4ccc(-c5c[nH]c([C@@H]6CCCN6C(=O)[C@@H](NC(=O)OC)C(C)C)n5)cc4)N3c3cc(F)c(N4CCC(c5ccccc5)CC4)c(F)c3)cc2)c[nH]1)C(C)C` [Example 9, methyl {(2S)-1-[(2S)-2-(4-{4-[(2R,5R)-1-[3,5-difluoro-4-(4-phenylpiperidin-1-yl)phenyl]-5-(4-{2-[(2S)-1-{(2S)-2-[(methoxycarbonyl)amino]-3-methylbutanoyl}pyrrolidin-2-yl]-1H-imidazol-4-yl}phenyl)pyrrolidin-2-yl]phenyl}-1H-imidazol-2-yl)pyrrolidin-1-yl]-3-methyl-1-oxobutan-2-yl}carbamate]: over 10.00. In the case of `COC(=O)N[C@H](C(=O)N1CCC[C@H]1c1nc2cc(F)c([C@H]3CC[C@H](c4cc5[nH]c([C@@H]6CCCN6C(=O)[C@@H](NC(=O)OC)C(C)C)nc5cc4F)N3c3cc(F)c(N4CCC(Cc5ccccc5)CC4)c(F)c3)cc2[nH]1)C(C)C` [Example 4.44, methyl {(2S)-1-[(2S)-2-{6-[(2R,5R)-1-[4-(4-benzylpiperidin-1-yl)-3,5-difluorophenyl]-5-{5-fluoro-2-[(2S)-1-{(2S)-2-[(methoxycarbonyl)amino]-3-methylbutanoyl}pyrrolidin-2-yl]-1H-benzimidazol-6-yl}pyrrolidin-2-yl]-5-fluoro-1H-benzimidazol-2-yl}pyrrolidin-1-yl]-3-methyl-1-oxobutan-2-yl}carbamate], the pEC50 was over 10.00. To `COC(=O)N[C@H](C(=O)N1CCC[C@H]1c1nc2cc([C@H]3CC[C@H](c4cc5nc([C@@H]6CCCN6C(=O)[C@@H](NC(=O)OC)[C@@H](C)OC)[nH]c5cc4F)N3c3cc(F)c(N4CCC(c5ccccc5)CC4)c(F)c3)c(F)cc2[nH]1)[C@@H](C)OC` [Example 4.38, methyl {(2S,3R)-1-[(2S)-2-{5-[(2R,5R)-1-[3,5-difluoro-4-(4-phenylpiperidin-1-yl)phenyl]-5-(6-fluoro-2-{(2S)-1-[N-(methoxycarbonyl)-O-methyl-L-threonyl]pyrrolidin-2-yl}-1H-benzimidazol-5-yl)pyrrolidin-2-yl]-6-fluoro-1H-benzimidazol-2-yl}pyrrolidin-1-yl]-3-methoxy-1-oxobutan-2-yl}carbamate] belongs over 10.00; to `COC(=O)N[C@H](C(=O)N1CCC[C@H]1c1nc2cc([C@H]3CC[C@H](c4ccc5[nH]c([C@@H]6CCCN6C(=O)[C@@H](NC(=O)OC)C(C)C)nc5c4)N3c3ccc(Cl)c(F)c3)ccc2[nH]1)C(C)C` [Example 2.2, methyl {(2S)-1-[(2S)-2-{5-[(2R,5R)-1-(4-chloro-3-fluorophenyl)-5-{2-[(2S)-1-{(2S)-2-[(methoxycarbonyl)amino]-3-methylbutanoyl}pyrrolidin-2-yl]-1H-benzimidazol-5-yl}pyrrolidin-2-yl]-1H-benzimidazol-2-yl}pyrrolidin-1-yl]-3-methyl-1-oxobutan-2-yl}carbamate], over 10.00. Next, `COC(=O)N[C@H](C(=O)N1CCC[C@H]1c1nc2cc([C@H]3CC[C@H](c4ccc5[nH]c([C@@H]6CCCN6C(=O)[C@@H](NC(=O)OC)C(C)C)nc5c4)N3c3ccnc(F)c3)ccc2[nH]1)C(C)C` [Example 1.4, methyl {(2S)-1-[(2S)-2-{5-[(2R,5R)-1-(2-fluoropyridin-4-yl)-5-{2-[(2S)-1-{(2S)-2-[(methoxycarbonyl)amino]-3-methylbutanoyl}pyrrolidin-2-yl]-1H-benzimidazol-5-yl}pyrrolidin-2-yl]-1H-benzimidazol-2-yl}pyrrolidin-1-yl]-3-methyl-1-oxobutan-2-yl}carbamate]: 9.00 to 10.00; `COC(=O)N[C@H](C(=O)N1[C@H](c2nc3cc([C@H]4CC[C@H](c5ccc6[nH]c([C@@H]7C[C@@H]8CCC[C@@H]8N7C(=O)[C@@H](NC(=O)OC)[C@@H](C)OC)nc6c5)N4c4cc(F)c(N5CCCCC5)c(F)c4)ccc3[nH]2)C[C@@H]2CCC[C@@H]21)[C@@H](C)OC` [Example 3.33]: over 10.00. Next, `COC(=O)N[C@H](C(=O)N1CCC[C@H]1c1nc2cc([C@H]3CC[C@H](c4ccc5[nH]c([C@@H]6CCCN6C(=O)[C@@H](NC(=O)OC)C(C)C)nc5c4)N3c3cc(F)c(N4CC(C)(C)C4)c(F)c3)ccc2[nH]1)C(C)C` [Example 4.24, methyl {(2S)-1-[(2S)-2-{5-[(R2R,5R)-1-[4-(3,3-dimethylazetidin-1-yl)-3,5-difluorophenyl]-5-{2-[(2S)-1-{(2S)-2-[(methoxycarbonyl)amino]-3-methylbutanoyl}pyrrolidin-2-yl]-1H-benzimidazol-5-yl}pyrrolidin-2-yl]-1H-benzimidazol-2-yl}pyrrolidin-1-yl]-3-methyl-1-oxobutan-2-yl}carbamate]: over 10.00.
